Data taken from the METLIN SMRT retention time set (Domingo-Almenara et al. 2019).

Assay: gradient 5% acetonitrile 3 min, to 50% in 2 min, to 85% in 15 min, held 3 min, 100 µL/min
Conditions: column: Zorbax Extend-C18 2.1 x 50 mm; eluents: water / acetonitrile, 0.1% formic acid
How it was run: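 Values are retention times taken from adduct peaks that software picked and an analyst inspected. The pure standards were run as mixtures of ~100 molecules on HPLC linked to a quadrupole time-of-flight mass spectrometer, in positive and negative ionization mode. A Zorbax Extend-C18 column (2.1 × 50 mm, 1.8 μm) was used at 100 μL/min with water and acetonitrile, each including 0.1% formic acid.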

Cc1cc(NC(=O)CSc2nc(-c3cccnc3)ccc2C#N)no1 showed an RP-LC retention time of 626 s.
With O=c1c2scc(-c3ccc(F)cc3)c2ncn1CCOc1ccccc1 the RP-LC retention time was 1070 s.
With COc1cccc(NC(=O)Nc2ccc3nc(N4CCN(C)CC4)cc(C)c3c2)c1 the RP-LC retention time was 587 s.
Work on O=C(NCC1CCCO1)C1CCCN(c2nccnc2Sc2ccccc2)C1 (configuration not stated) yielded an RP-LC retention time of 860 s.
With CCCNc1nc(-c2nnc(-c3cccc(C)c3)o2)nc2ccccc12 the RP-LC retention time was 1000 s.
Work on Cc1ccc(CNC(=O)C(=O)NCC(c2ccc3c(c2)CCCN3C)N2CCOCC2)cc1 (configuration not stated) yielded an RP-LC retention time of 610 s.
Work on O=C(Nc1cccnc1N1CCOCC1)C1CCC1 yielded an RP-LC retention time of 623 s.
With Cc1nn(-c2ccccc2)c(C)c1S(=O)(=O)N1CCC(C(=O)NC2CC2)CC1 the RP-LC retention time was 744 s.
Work on COc1cc(C(=O)N(Cc2cccs2)C2CCS(=O)(=O)C2)cc(OC)c1OC (configuration not stated) yielded an RP-LC retention time of 702 s.
CCc1ccc(CNC(=S)Nc2ccc3nc(N4CCN(C)CC4)cc(C)c3c2)cc1 showed an RP-LC retention time of 641 s.
Compound Cc1oc(-c2ccc(NC(=O)c3ccsc3)cc2)nc1Cn1cccn1 has an RP-LC retention time of 823 s.
CCOC(=O)c1c(S(=O)(=O)N2CCC(C(=O)Nc3ccc(F)c(Cl)c3)CC2)c(C)n(C)c1C gave an RP-LC retention time of 935 s.
Work on Cc1ccc(NC(=O)Cn2nnc(C(=O)NCc3cccs3)c2N)cc1 yielded an RP-LC retention time of 593 s.
For CC1(C(=O)N2CCN(c3ccccn3)CC2)CCCCC(=O)N1 (configuration not stated), the RP-LC retention time was 552 s.
With CCC(=O)NCc1nc2c(n1CC)CN(C(=O)c1cc(C)cc(C)c1)CC2 the RP-LC retention time was 620 s.
For O=C(Cn1ccc2ccn(Cc3ccccc3F)c2c1=O)NCc1ccc(F)cc1F, the RP-LC retention time was 880 s.
Compound Cc1cc2nc(C(=O)Nc3cccc(C#N)c3)cc(C)n2n1 has an RP-LC retention time of 901 s.
Compound CCc1nc(-c2csc(S(=O)(=O)N3CCCC(C(=O)Nc4ccc(C#N)cc4)C3)c2)no1 (configuration not stated) has an RP-LC retention time of 1020 s.
In the case of CCOc1ccc(OCC)c(NC(=O)C2CCN(c3nccnc3Sc3ccc(C)cc3)CC2)c1, the RP-LC retention time is reported as 1380 s.
Compound O=C(c1cccnc1)N1CCCCC1c1nncn1-c1ccccc1 (configuration not stated) has an RP-LC retention time of 596 s.
COCCN1C(=O)[C@H]2CN(Cc3ccccc3OC(F)(F)F)C[C@H]2C1=O showed an RP-LC retention time of 743 s.
O=C1CC(NC(=O)c2cc(C3CC3)on2)CN1 (configuration not stated) gave an RP-LC retention time of 563 s.
Work on CCCCC(=O)Nc1ccc(SCc2nnc(-c3ccc4c(c3)OCO4)o2)cc1 yielded an RP-LC retention time of 948 s.
For CC1CCC(NC(=O)C2CCCN(C(=O)c3cc(-c4ccccn4)n[nH]3)C2)CC1 (configuration not stated), the RP-LC retention time was 636 s.
For O=C(Nc1ccc2c(c1)OCCO2)C1CCCN(S(=O)(=O)c2c[nH]c(C(=O)N3CCCC3)c2)C1 (configuration not stated), the RP-LC retention time was 756 s.
Work on COCC(C)NC(=O)C(=O)NCc1cccs1 (configuration not stated) yielded an RP-LC retention time of 658 s.
Cn1cc(-c2nc(C(=O)Nc3cc(F)ccc3F)cs2)c2cccnc21 gave an RP-LC retention time of 1150 s.
In the case of COc1cccc(NC(=O)N2CCC(CC(=O)N3CCCCC3)CC2)c1, the RP-LC retention time is reported as 718 s.
CCCc1nc2cccnc2n1C1CCN(C(=O)c2ccc(N3CCCC3=O)cc2)C1 (configuration not stated) showed an RP-LC retention time of 579 s.
Compound CCOC(=O)Cc1ccc(NC(=O)N2CCC3(CC2)NC(=O)c2ccccc2O3)cc1 has an RP-LC retention time of 761 s.
For Cc1ccc(NC(=O)N2C[C@@H](F)C[C@H]2C(=O)N2CCc3ccccc3C2)cc1F, the RP-LC retention time was 873 s.
Work on CCCn1c(=O)sc2cc(S(=O)(=O)N3CCC(C(=O)N4CCC(C)CC4)CC3)ccc21 yielded an RP-LC retention time of 994 s.
CN1C(=O)c2cccn2CC1CNC(=O)c1ccnn1C (configuration not stated) gave an RP-LC retention time of 591 s.
Cn1c(=O)c2c(nc3n(-c4ccccc4N)c(-c4ccc(Cl)cc4)cn23)n(C)c1=O gave an RP-LC retention time of 883 s.
Compound CCN(CC)C(=O)c1ccc2c(c1)N(CC(=O)NCCOC)C(=O)CO2 has an RP-LC retention time of 624 s.
Work on O=C([C@@H]1C[C@H](F)CN1C(=O)Nc1ccc(F)cc1)N1CCCCC1 yielded an RP-LC retention time of 690 s.
Work on COc1ccc(CNS(=O)(=O)c2cc(-c3nc(C(C)C)cs3)sc2C)cc1 yielded an RP-LC retention time of 1180 s.
COc1ccc2[nH]cc(CCNC(=O)c3cc4n(n3)CCCN(Cc3ccc(Cl)cc3)C4=O)c2c1 gave an RP-LC retention time of 693 s.
Work on O=C(NC1CC1)c1ccc(OCC2CCN(C(=O)c3ccc(Cl)cc3)CC2)cc1 yielded an RP-LC retention time of 850 s.
For Cc1cccc(C(=O)N2CCc3cc(CNC(=O)c4cc(-c5cccs5)[nH]n4)ccc32)c1, the RP-LC retention time was 895 s.
Work on Cc1cc(OCc2nc(C)c(C(=O)Nc3nc(-c4ccccc4)cs3)s2)ccc1Cl yielded an RP-LC retention time of 1330 s.
Compound O=C(CSc1nnc2c3cc(-c4ccc(F)cc4)nn3ccn12)Nc1ccc(F)cc1F has an RP-LC retention time of 891 s.
For CC(C)NC(=O)C1COC2(CCN(C(=O)c3cccc(Cl)c3)CC2)N1C(=O)c1ccccc1 (configuration not stated), the RP-LC retention time was 725 s.
With CCSc1nnc(NC(=O)CCc2c(C)n[nH]c2C)s1 the RP-LC retention time was 584 s.
Compound CCc1ccc(-c2noc(CN3C(=O)COc4ccc(S(=O)(=O)CC)cc43)n2)cc1 has an RP-LC retention time of 1000 s.
For Cc1ccc(-c2ccc(N3CCCC(C(=O)NCc4ccco4)C3)nn2)cc1C (configuration not stated), the RP-LC retention time was 719 s.
Compound Cc1ccc(-c2cc(C(=O)N3CCN(c4ccc(N5CCOCC5)nn4)CC3)[nH]n2)c(C)c1 has an RP-LC retention time of 638 s.
For CCC(C(=O)N1CCC(C)CC1)n1cnc2onc(-c3ccc(Cl)cc3)c2c1=O (configuration not stated), the RP-LC retention time was 1280 s.
O=C(c1ccc(Br)cc1)N1CCN(C(=O)c2cc(-c3ccncc3)n[nH]2)CC1 gave an RP-LC retention time of 616 s.
For CCc1ccccc1NC(=O)N1CCCC1c1nc(-c2cccc(OC)c2)no1 (configuration not stated), the RP-LC retention time was 957 s.
In the case of CCc1ccc(NC(=O)N2CCN(Cc3ccc4nccnc4c3)CC2)cc1, the RP-LC retention time is reported as 626 s.
CC1Oc2ccc(-c3csc(NC(=O)C4CC4)n3)cc2N(C)C1=O (configuration not stated) gave an RP-LC retention time of 787 s.
Work on CCNC(=O)c1cccc(Nc2c(-c3ccc(SC)cc3)nc3cnccn23)c1 yielded an RP-LC retention time of 887 s.
For CC1CCCN(C(=O)c2ccc3c(c2)Sc2ncccc2C(=O)N3C(C)C)C1 (configuration not stated), the RP-LC retention time was 850 s.
Work on Cn1nc(-c2nc(Cc3ccccc3)no2)c2c1CCN(C(=O)NC1CCCC1)C2 yielded an RP-LC retention time of 867 s.
For COCCN1CCC2(CC1)CN(Cc1ccc(C(C)C)cc1)Cc1ccccc1O2, the RP-LC retention time was 667 s.
CCOc1cccc(CNc2c(C(=O)OC)c(=O)[nH]c3c(Cl)cccc23)c1 gave an RP-LC retention time of 873 s.
With COCc1cc(=O)n(CC(=O)Nc2cc(Cl)ccc2C)c(N2CCOCC2)n1 the RP-LC retention time was 895 s.
Work on COc1cccc(C(=O)c2oc3ccccc3c2NC(=O)c2ccccc2[N+](=O)[O-])c1 yielded an RP-LC retention time of 1080 s.
With CC(C)n1cnc(S(=O)(=O)N2CCC(C(=O)Nc3ccc4c(c3)OCCO4)CC2)c1 the RP-LC retention time was 721 s.
Compound CCN(Cc1ccccc1)S(=O)(=O)c1c(C)c(-c2nnc(C3CCC3)o2)n(C)c1C has an RP-LC retention time of 1130 s.
Work on Cc1ccc2c(c1)NN=C(C(=O)N1CCC(C)CC1)S2(=O)=O yielded an RP-LC retention time of 809 s.
Work on O=C(Nc1cccc(F)c1)N1CCCC1c1nc(-c2cccc(Cl)c2)no1 (configuration not stated) yielded an RP-LC retention time of 1080 s.
COc1ccc(-c2noc(CN3N=NC4C(=O)N(c5ccc6c(c5)CCC6)C(=O)C43)n2)cc1OC (configuration not stated) gave an RP-LC retention time of 949 s.
Work on Cc1csc(NC(=O)C2CCCN(S(=O)(=O)c3c[nH]c(C(=O)N4CCCC4)c3)C2)n1 (configuration not stated) yielded an RP-LC retention time of 714 s.
CCCCN1CCN(C(=O)c2cc(CC)n3nc(-c4ccccn4)cc3n2)CC1 showed an RP-LC retention time of 614 s.
In the case of Cc1nc(-c2ccc(C)c(S(=O)(=O)NCCN(C)C)c2)cs1, the RP-LC retention time is reported as 612 s.
Work on COc1cc(Cl)ccc1C(=O)N1C[C@@H]2C[C@H]1C[C@@H]2NC(=O)c1ccccc1 yielded an RP-LC retention time of 939 s.
COc1ccc(-c2cn3cccnc3n2)cc1NC(=O)c1c(-c2ccccc2Cl)noc1C showed an RP-LC retention time of 770 s.
CC(C(=O)N1CCN(Cc2ccc3c(c2)OCO3)CC1)n1c2ccccc2c2cnn(C)c(=O)c21 (configuration not stated) showed an RP-LC retention time of 669 s.
In the case of N#Cc1cnn(-c2cccc(Cl)c2)c1-n1cccc1, the RP-LC retention time is reported as 1070 s.
CCCNC(=O)N(C1CCOCC1)C1CCN(C(=O)Nc2c(F)cccc2F)CC1 gave an RP-LC retention time of 685 s.
Compound O=C(COc1ccccc1)N1CCCC(COc2ccc(C(=O)N3CCCC3)cc2)C1 (configuration not stated) has an RP-LC retention time of 808 s.
Cc1ccc2[nH]cc(CCN3CC(C(=O)NC4CCCCC4)CC3=O)c2c1 (configuration not stated) gave an RP-LC retention time of 819 s.
With Cc1ccc(C)c(N2CCN(c3ncc(S(=O)(=O)c4ccc(Cl)cc4)c(N)n3)CC2)c1 the RP-LC retention time was 1380 s.
Compound O=C1CCCN1CCCN1C(=O)[C@H]2CN(Cc3ccc(F)c(Cl)c3)C[C@H]2C1=O has an RP-LC retention time of 599 s.
Work on CC(C)NC(=O)CN1C(=O)COc2ccc(C(=O)N3CCCCCC3)cc21 yielded an RP-LC retention time of 680 s.
In the case of Cc1c(C(N)=O)nnn1-c1ccccc1, the RP-LC retention time is reported as 645 s.
For CC(C)(Oc1ccc(Cl)cc1)C(=O)NCC1(O)CCc2ccccc21 (configuration not stated), the RP-LC retention time was 736 s.
CCCNC(=O)C1CCCN(c2nc3ncn(CC(=O)Nc4ccc5c(c4)OCO5)c(=O)c3s2)C1 (configuration not stated) showed an RP-LC retention time of 640 s.
O=C(NCc1nc(-c2ccccc2)no1)c1csc(-c2cnccn2)n1 showed an RP-LC retention time of 779 s.
O=C(Nc1ccc(Cl)c(Cl)c1)N1CC(c2nc(-c3cnccn3)no2)C1 gave an RP-LC retention time of 746 s.
Compound O=C(NCc1cccnc1)N(c1ccccc1)c1ccccc1 has an RP-LC retention time of 578 s.
With CCOc1cc(-c2nc(C3CC(=O)N(c4ccc(CC)cc4)C3)no2)cc(OCC)c1OCC (configuration not stated) the RP-LC retention time was 1300 s.
CCc1ccc(CNC(=O)Cn2cnc3nc4c(cc3c2=O)CC(C)CC4)cc1 (configuration not stated) gave an RP-LC retention time of 855 s.
In the case of O=C(c1ccccc1F)N1CCC(CNC(=O)C2(c3ccccc3)CCOCC2)CC1, the RP-LC retention time is reported as 706 s.
With CCn1c(=O)n(CC)c2cc(N3CCCC3)c(NC(=O)NCc3cccc(OC)c3)cc21 the RP-LC retention time was 646 s.
